This assay relates to SJL female mice. Description: In vivo activity in experimental allergic encephalitis (EAE) model, pre-immunization with peptide before EAE induction. To be noted: for Incidence of EAE: number of mice with clinical EAE/number of mice immunized, after two weeks EAE induced with 300 nmoles P81-100 in CFA plus pertussis toxin, observed day 9 up to 60. How it is done:
The in vivo activity of the peptide compounds of formula (I) (SEQ ID NO: 1), were evaluated on four groups of SJL female mice, used at the age of 6-15 weeks. This strain of mice has been genetically selected for its ability to develop experimental allergic encephalitis (EAE).
Two groups of mice have been immunized intraperitoneally with the peptide compound of formula (I) (SEQ ID NO: 1) (300 nmoles), dissolved in 0.05 ml of physiological solution and then emulsified with 0.05 ml of incomplete Freund's adjuvant (IFA) (Sigma, Italy).
As positive and negative control, P81-100 (SEQ ID NO: 5) and IFA alone were used respectively.
After two weeks EAE was induced in all groups by challenge with 300 nmoles of P81-100 (SEQ ID NO: 5) dissolved in 0.1 ml of physiological solution and then emulsified with 0.1 ml of complete Freund's adjuvant (CFA) (Sigma, Italy).
Pertussis toxin (200 ng) (Fluka Chemie AG, Switzerland) was injected intravenously at the time of immunization and 2 days later. The role of pertussis toxin is to enhance the migration of autoreactive lymphocytes through the encephalic barrier (Bernard, et al., "J. Immunol." 114, 1537-1540, 1975).
Mice were observed daily beginning at day 9 up to 60 for clinical signs of EAE and were graded according to the following clinical scale: 1, limp tail; 2, partial hind limp paralysis; 3, complete hind limp paralysis; 4, hind and front limp paralysis; 5, moribund (Broke S. et al., "Nature", 379, 343-346, 1996). Grade 5 mice were euthanized.

Setting [1] is: 300 nmoles intraperitoneally in IFA.

Ends that are not written are not given here.

In turn, `CC[C@H](C)[C@H](NC(=O)[C@H](CC(N)=O)NC(=O)[C@H](CCCCN)NC(=O)[C@H](Cc1ccccc1)NC(=O)[C@H](Cc1ccccc1)NC(=O)[C@H](Cc1c[nH]cn1)NC(=O)[C@@H](NC(=O)[C@@H](NC(=O)[C@@H]1CCCN1C(=O)[C@@H](N)CC(N)=O)C(C)C)C(C)C)C(=O)N[C@H](C(=O)N[C@H](C(=O)N1CCC[C@H]1C(=O)N[C@@H](CCCNC(=N)N)C(=O)N[C@H](C(=O)N1CCC[C@H]1C(=O)N1CCC[C@H]1C(=O)N1CCC[C@H]1C(=O)N[C@@H](CO)C(=O)N[C@@H](CCC(N)=O)C(=O)O)[C@@H](C)O)[C@@H](C)O)C(C)C` [Peptide P81-100] came in with a Day of on-set (mean day of onset ± SD, 300 nmoles intraperitoneally in IFA, after two weeks EAE induced with 300 nmoles P81-100 in CFA) of 33±4.24. This compound also yielded a Severity (mean severity of sick mice ± SD, clinical scale 1-5, 300 nmoles intraperitoneally in IFA, after two weeks EAE induced with 300 nmoles P81-100 in CFA) of 1.0±0. Also, the “Incidence of EAE” value under setting [1] is 2/17.

As to NGVGHGFGNGVGPGTGPGSG [Peptide I], under setting [1], the “Incidence of EAE” value was 0/17. Besides, the “development of EAE” value (result in words, summary of Table 1, SJL mice treated with peptide before EAE induction) was “didn't develop EAE”.

The values are drawn from EP1165610B1, “PEPTIDE USEFUL IN TREATING MULTIPLE SCLEROSIS AND A PHARMACEUTICAL COMPOSITION COMPRISING THE SAME” (TECNOGEN S.C.P.A., priority 1999, dated 2006).
